Our source for the Ki values is ChEMBL document CHEMBL1148776, “Structure-based optimization of protein tyrosine phosphatase 1B inhibitors: from the active site to the second phosphotyrosine binding site” (J Med Chem, 2007).

For orientation: Ki means the equilibrium dissociation constant of an inhibitor or competing ligand from its target.

One test has as its target T1, Tyrosine-protein phosphatase non-receptor type 1 (Homo sapiens, UniProt P18031).
T1 sequence (P18031 whole entry): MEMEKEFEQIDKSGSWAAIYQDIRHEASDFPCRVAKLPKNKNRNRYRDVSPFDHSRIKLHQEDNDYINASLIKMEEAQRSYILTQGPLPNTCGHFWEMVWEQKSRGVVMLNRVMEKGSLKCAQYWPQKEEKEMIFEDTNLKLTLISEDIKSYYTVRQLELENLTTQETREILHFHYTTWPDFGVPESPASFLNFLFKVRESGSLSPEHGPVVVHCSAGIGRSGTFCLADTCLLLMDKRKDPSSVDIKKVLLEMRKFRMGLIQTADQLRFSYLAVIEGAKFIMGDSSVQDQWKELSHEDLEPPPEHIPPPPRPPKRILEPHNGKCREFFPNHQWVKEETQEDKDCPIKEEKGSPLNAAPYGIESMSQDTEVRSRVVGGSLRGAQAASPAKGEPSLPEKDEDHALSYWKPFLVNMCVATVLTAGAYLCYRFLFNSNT
Kind of test: Inhibition of human recombinant PTP1B.
With `O=C(O)COc1c(C(=O)O)sc(-c2cccc(NCC3CCN(S(=O)(=O)Cc4ccccc4)CC3)c2)c1Br`, the Ki was 0.074 µM.
As for `O=C(O)COc1c(C(=O)O)sc(-c2cccc(NC(=O)c3ccccc3)c2)c1Br`, the Ki came out at 2.1 µM.
As for `O=C(O)COc1c(C(=O)O)sc(-c2cccc(NC3CCN(S(=O)(=O)Cc4cccc(Cl)c4)CC3)c2)c1Br`, the Ki worked out at 0.01 µM.
Still for that read-out and setting: under `Cc1ccccc1NC(=O)N1CCC(CNc2cccc(-c3sc(C(=O)O)c(OCC(=O)O)c3Br)c2)CC1` stands 0.003 µM.
The same measure, in the same setting: to `O=C(O)COc1c(C(=O)O)sc(-c2cccc(NC3CCOCC3)c2)c1Br` belongs 0.31 µM.
On the same count and under the same terms, to `O=C(O)COc1c(C(=O)O)sc(-c2cccc(NCC3CCN(C(=O)Nc4ccccc4Cl)CC3)c2)c1Br` belongs 0.004 µM; to `COc1ccccc1NC(=O)N1CCC(CNc2cccc(-c3sc(C(=O)O)c(OCC(=O)O)c3Br)c2)CC1`, 0.003 µM; to `O=C(O)COc1c(C(=O)O)sc(-c2cccc(OCc3ccccc3)c2)c1Br`, 0.68 µM.
For the compound `O=C(O)COc1c(C(=O)O)sc(-c2cccc(OCC3CCN(C(=O)Nc4ccccc4)CC3)c2)c1Br`, the Ki was 0.013 µM.
On to `O=C(O)COc1c(C(=O)O)sc(-c2cccc(NC3CCN(S(=O)(=O)c4ccccc4)CC3)c2)c1Br`, for which the Ki turned out to be 0.055 µM.
On the same count and under the same terms, under `O=C(O)COc1c(C(=O)O)sc(-c2cccc(NC3CCCCCC3)c2)c1Br` stands 0.12 µM; under `O=C(O)COc1c(C(=O)O)sc(-c2cccc(NC3CCCC3)c2)c1Br`, 0.39 µM; under `CCNC(=O)Nc1ccccc1CS(=O)(=O)N1CCC(Nc2cccc(-c3sc(C(=O)O)c(OCC(=O)O)c3Br)c2)CC1`, 0.014 µM.
For `CC(C)NC(=O)Nc1cccc(-c2sc(C(=O)O)c(OCC(=O)O)c2Br)c1`, the Ki worked out at 2.1 µM.
On the same count and under the same terms, under `O=C(O)COc1c(C(=O)O)sc(-c2cccc(OC3CCN(S(=O)(=O)Cc4ccccc4)CC3)c2)c1Br` stands 0.024 µM.
As to `O=C(O)COc1c(C(=O)O)sc(-c2cccc(NS(=O)(=O)c3ccc(F)cc3)c2)c1Br`, the Ki worked out at 0.44 µM.
For `O=C(O)COc1c(C(=O)O)sc(-c2cccc(NC3CCN(C(=O)NCc4ccccc4)CC3)c2)c1Br`, the Ki was found to be 0.3 µM.
Still for that read-out and setting: under `COC(=O)N1CCC(Nc2cccc(-c3sc(C(=O)O)c(OCC(=O)O)c3Br)c2)CC1` stands 0.39 µM.
Same read-out and setting: under `O=C(O)COc1c(C(=O)O)sc(-c2cccc(NC3CCN(S(=O)(=O)Cc4ccccc4)CC3)c2)c1Cl` stands 0.00068 µM; under `O=C(O)COc1c(C(=O)O)sc(-c2cccc(NC3CCNCC3)c2)c1Br`, 3.8 µM; under `O=C(O)COc1cc(-c2cccc(NC3CCN(S(=O)(=O)Cc4ccccc4)CC3)c2)sc1C(=O)O`, 2 µM.
Still for that read-out and setting: under `O=C(O)COc1c(C(=O)O)sc(-c2cccc(NC3CCN(S(=O)(=O)Cc4ccc(Cl)cc4)CC3)c2)c1Br` stands 0.038 µM; under `CC(=O)N1CCC(Nc2cccc(-c3sc(C(=O)O)c(OCC(=O)O)c3Br)c2)CC1`, 0.19 µM.
Take `CCC(=O)Nc1cccc(-c2sc(C(=O)O)c(OCC(=O)O)c2Br)c1`: the Ki was found to be 2 µM.
The same measure, in the same setting: to `CS(=O)(=O)Nc1ccccc1CS(=O)(=O)N1CCC(Nc2cccc(-c3sc(C(=O)O)c(OCC(=O)O)c3Br)c2)CC1` belongs 0.001 µM; to `Nc1cccc(-c2sc(C(=O)O)c(OCC(=O)O)c2Br)c1`, 1.7 µM.
The same measure, in the same setting: to `O=C(O)COc1c(C(=O)O)sc(-c2cccc(NCC3CCN(C(=O)Nc4ccccc4)CC3)c2)c1Br` belongs 0.007 µM; to `O=C(O)COc1c(C(=O)O)sc(-c2cccc(NC3CCN(S(=O)(=O)Cc4ccccc4C(F)(F)F)CC3)c2)c1Br`, 0.006 µM; to `Cc1ccccc1CS(=O)(=O)N1CCC(Nc2cccc(-c3sc(C(=O)O)c(OCC(=O)O)c3Br)c2)CC1`, 0.004 µM.
The same measure, in the same setting: to `COc1cccc(-c2sc(C(=O)O)c(OCC(=O)O)c2Br)c1` belongs 4 µM.
Consider `CS(=O)(=O)N1CCC(Nc2cccc(-c3sc(C(=O)O)c(OCC(=O)O)c3Br)c2)CC1`, for which the Ki was found to be 0.044 µM.
With `Cc1cccc(C)c1NC(=O)N1CCC(CNc2cccc(-c3sc(C(=O)O)c(OCC(=O)O)c3Br)c2)CC1`, the Ki was determined as 0.003 µM.
`Cc1c(-c2cccc(NC3CCN(S(=O)(=O)Cc4ccccc4)CC3)c2)sc(C(=O)O)c1OCC(=O)O`: the Ki is 0.008 µM.
On the same count and under the same terms, under `O=C(O)COc1c(C(=O)O)sc(-c2cccc(NC3CCN(S(=O)(=O)Cc4ccccc4Cl)CC3)c2)c1Br` stands 0.005 µM; under `Cc1cccc(C)c1CS(=O)(=O)N1CCC(Nc2cccc(-c3sc(C(=O)O)c(OCC(=O)O)c3Br)c2)CC1`, 0.006 µM; under `O=C(O)COc1c(C(=O)O)sc(-c2cccc(NCC3CCCCC3)c2)c1Br`, 0.2 µM.
The same measure, in the same setting: under `COC(=O)Nc1cccc(-c2sc(C(=O)O)c(OCC(=O)O)c2Br)c1` stands 2 µM.
Same read-out and setting: to `O=C(O)COc1c(C(=O)O)sc(-c2cccc(NCC3CCN(S(=O)(=O)c4ccccc4)CC3)c2)c1Br` belongs 0.31 µM.

In another test the target is T2, Receptor-type tyrosine-protein phosphatase C (Homo sapiens, UniProt P08575).
T2 sequence (P08575 whole entry): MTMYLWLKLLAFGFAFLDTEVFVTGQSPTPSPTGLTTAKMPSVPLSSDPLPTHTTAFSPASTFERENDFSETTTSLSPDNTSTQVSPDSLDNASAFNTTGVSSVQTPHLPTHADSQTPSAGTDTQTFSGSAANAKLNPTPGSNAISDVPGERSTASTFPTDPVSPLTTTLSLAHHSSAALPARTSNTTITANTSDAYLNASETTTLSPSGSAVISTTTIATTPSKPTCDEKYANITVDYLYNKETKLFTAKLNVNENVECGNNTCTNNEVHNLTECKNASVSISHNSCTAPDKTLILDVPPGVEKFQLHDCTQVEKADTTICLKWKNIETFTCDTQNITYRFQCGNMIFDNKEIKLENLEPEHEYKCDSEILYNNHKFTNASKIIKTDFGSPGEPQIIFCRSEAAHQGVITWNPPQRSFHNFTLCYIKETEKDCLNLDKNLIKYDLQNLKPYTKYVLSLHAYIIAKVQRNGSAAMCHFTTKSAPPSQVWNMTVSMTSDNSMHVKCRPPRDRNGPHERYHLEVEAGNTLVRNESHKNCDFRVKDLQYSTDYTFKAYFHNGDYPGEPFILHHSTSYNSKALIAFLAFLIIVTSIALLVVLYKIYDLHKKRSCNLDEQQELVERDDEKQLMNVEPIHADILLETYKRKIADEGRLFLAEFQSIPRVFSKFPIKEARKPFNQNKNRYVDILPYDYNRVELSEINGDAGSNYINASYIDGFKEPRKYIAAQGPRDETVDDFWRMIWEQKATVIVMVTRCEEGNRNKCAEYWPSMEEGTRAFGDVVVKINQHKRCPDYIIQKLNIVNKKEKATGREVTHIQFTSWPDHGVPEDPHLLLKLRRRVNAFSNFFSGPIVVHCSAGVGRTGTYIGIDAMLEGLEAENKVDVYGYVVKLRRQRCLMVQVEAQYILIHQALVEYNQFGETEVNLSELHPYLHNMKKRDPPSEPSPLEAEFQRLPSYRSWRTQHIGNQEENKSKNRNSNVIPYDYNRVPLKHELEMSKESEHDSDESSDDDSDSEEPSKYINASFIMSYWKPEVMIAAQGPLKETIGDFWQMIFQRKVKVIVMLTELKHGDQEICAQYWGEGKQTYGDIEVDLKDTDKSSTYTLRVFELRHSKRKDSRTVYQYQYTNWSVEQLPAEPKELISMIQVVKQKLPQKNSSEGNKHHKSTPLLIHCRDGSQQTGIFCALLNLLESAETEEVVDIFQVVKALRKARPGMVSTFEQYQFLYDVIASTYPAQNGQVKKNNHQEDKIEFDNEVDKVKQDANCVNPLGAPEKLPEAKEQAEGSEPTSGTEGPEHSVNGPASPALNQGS
The test is described as follows: Inhibition of human recombinant CD45.
In the case of `CC1(C)CC(Nc2cccc(-c3sc(C(=O)O)c(OCC(=O)O)c3Br)c2)CC(C)(C)C1`, the Ki is 151 µM.
On to `O=C(O)COc1c(C(=O)O)sc(-c2ccccc2)c1Br`, for which the Ki is 280 µM.

The next test deals with Receptor-type tyrosine-protein phosphatase F (Homo sapiens, UniProt P10586). The test is described as follows: Inhibition of human recombinant LAR.
Sequence of Receptor-type tyrosine-protein phosphatase F (P10586 whole entry): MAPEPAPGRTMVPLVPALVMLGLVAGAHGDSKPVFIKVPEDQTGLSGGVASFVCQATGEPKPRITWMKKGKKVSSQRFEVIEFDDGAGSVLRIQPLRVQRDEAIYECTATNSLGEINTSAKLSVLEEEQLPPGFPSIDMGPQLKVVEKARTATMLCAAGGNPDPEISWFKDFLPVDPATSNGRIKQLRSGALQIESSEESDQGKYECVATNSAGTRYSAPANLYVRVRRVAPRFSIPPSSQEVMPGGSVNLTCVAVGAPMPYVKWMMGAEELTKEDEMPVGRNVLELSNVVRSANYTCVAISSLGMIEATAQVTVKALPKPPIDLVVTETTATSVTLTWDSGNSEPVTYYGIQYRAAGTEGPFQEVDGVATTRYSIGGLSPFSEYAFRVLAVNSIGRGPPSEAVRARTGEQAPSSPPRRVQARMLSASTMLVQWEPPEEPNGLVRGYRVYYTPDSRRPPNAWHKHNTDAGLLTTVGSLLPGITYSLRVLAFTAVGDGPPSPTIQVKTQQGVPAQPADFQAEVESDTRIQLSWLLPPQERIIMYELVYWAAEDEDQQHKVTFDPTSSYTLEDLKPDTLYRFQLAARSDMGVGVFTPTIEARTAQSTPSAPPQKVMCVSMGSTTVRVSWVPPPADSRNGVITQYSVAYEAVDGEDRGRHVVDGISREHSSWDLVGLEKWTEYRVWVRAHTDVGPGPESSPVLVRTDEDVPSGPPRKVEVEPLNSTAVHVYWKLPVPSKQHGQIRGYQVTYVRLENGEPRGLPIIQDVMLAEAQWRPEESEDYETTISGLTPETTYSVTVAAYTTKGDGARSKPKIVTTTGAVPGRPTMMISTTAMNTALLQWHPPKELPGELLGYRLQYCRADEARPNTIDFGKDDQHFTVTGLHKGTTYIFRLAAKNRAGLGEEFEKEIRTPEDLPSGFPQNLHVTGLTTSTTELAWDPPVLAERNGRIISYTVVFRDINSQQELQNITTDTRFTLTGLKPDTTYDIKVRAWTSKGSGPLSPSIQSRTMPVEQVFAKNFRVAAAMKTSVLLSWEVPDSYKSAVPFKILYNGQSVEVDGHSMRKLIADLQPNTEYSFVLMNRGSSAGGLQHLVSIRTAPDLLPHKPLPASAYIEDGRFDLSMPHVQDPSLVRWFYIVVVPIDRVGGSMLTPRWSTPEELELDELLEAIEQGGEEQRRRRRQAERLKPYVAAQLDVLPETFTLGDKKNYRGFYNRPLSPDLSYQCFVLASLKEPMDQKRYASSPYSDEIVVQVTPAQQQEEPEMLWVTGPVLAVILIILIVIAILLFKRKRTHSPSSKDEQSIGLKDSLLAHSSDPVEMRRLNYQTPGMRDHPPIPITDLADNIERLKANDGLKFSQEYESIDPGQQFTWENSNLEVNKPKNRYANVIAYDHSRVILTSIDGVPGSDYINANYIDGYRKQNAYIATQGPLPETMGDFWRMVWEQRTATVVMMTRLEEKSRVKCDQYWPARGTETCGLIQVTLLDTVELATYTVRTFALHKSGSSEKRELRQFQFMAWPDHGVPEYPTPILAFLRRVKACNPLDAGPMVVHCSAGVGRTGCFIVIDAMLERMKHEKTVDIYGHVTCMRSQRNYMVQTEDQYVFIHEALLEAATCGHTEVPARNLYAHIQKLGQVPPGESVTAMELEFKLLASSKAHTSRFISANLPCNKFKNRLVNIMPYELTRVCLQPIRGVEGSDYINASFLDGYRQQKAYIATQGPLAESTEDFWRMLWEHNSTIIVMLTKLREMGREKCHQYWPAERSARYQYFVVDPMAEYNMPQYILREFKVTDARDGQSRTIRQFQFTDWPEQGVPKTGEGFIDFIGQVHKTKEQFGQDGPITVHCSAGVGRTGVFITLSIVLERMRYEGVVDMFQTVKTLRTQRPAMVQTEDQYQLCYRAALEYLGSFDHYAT
Regarding `CC1(C)CC(Nc2cccc(-c3sc(C(=O)O)c(OCC(=O)O)c3Br)c2)CC(C)(C)C1`, the Ki was > 1000 µM.
For the compound `O=C(O)COc1c(C(=O)O)sc(-c2ccccc2)c1Br`, the Ki is > 500 µM.
